Results taken from patent US10947225B2, “Phosphotidylinositol 3-kinase inhibitors” (Emory University, priority 2016, dated 2021).
pIC50, pKi: −log10 of the molar value. Read-outs that look alike come from different tables or passages of the source.

Experiments:
Format in all cases: biochemical
PI3Kα = target: T1, PI3Kα (Homo sapiens, UniProt P42336); assay: Ki for PI3Kα (Promega ADP-Glo Lipid Kinase System)
T1 construct: purchased Promega V1721
Source text: The Promega V1721 ADP-Glo Lipid Kinase System was used as per the Promega technical manual. The analysis was done in triplicate on three 96-well plates. The plates were read and the data were processed with GraphPad Prism 7.0.

p110alpha = p110alpha (Homo sapiens, UniProt P42336); assay: PI3K kinase assay (ADP-Glo), p110alpha; conditions: final ATP 25 μM
Procedure: (§1) Summary of PI3K Kinase Assay
Enzyme optimization: After optimization, the following concentrations of Enzyme are used to compound testing: P110alpha 1 μg/ml,
(§2) 1. Prepare 1.25× enzyme/substrate: mix equal volume of 2.5× enzyme (in 2.5× reaction buffer) and 2.5× substrate (final 0.05 mg/ml) (in 2.5× lipid dilution buffer);
(§3) 2. Add 4 μl of 1.25× enzyme/substrate mixture to 384-well low volume white plate;
(§4) 3. Add 0.1 μl of increasing concentrations of compound diluted in DMSO;
(§5) 4. Incubate at r.t. for 30 min;
(§6) 5. Dispense 1 μl of 250 μM ATP diluted in ddH2O. The final ATP was 25 μM;
(§7) 6. Incubate at r.t. for 1 h;
(§8) 7. Add 5 μl of ADP-Glo with 10 mM MgCl2;
(§9) 8. Incubate at r.t. for 40 min;
(§10) 9. Add 10 μl of kinase detection buffer;
(§11) 10. Incubated at r.t. for 30 min; and
(§12) 11. Read luminescence signal using Envision multilabel plate reader.
(§13) The effect of compound on kinase activity is expressed as % of control and calculated as the following equation: % of Control=(Lum compound−Lum blank)/(Lum vehicle control−Lum blank)×100 • * blank is the substrate only without enzyme, which is the background signal control.
(§14) The experiment was repeated twice on different days at triplicates per sample.

p110beta = p110beta (Homo sapiens, UniProt P42338); assay: PI3K kinase assay (ADP-Glo), p110beta; conditions: final ATP 25 μM
Procedure: as §1, §2, §3, §4, §5, §6, §7, §8, §9, §10, §11, §12, §13, §14

p110delta = p110delta (Homo sapiens, UniProt O00329); assay: PI3K kinase assay (ADP-Glo), p110delta; conditions: final ATP 25 μM
Procedure: as §1, §2, §3, §4, §5, §6, §7, §8, §9, §10, §11, §12, §13, §14

p120gamma = p120gamma (Homo sapiens, UniProt P48736); assay: PI3K kinase assay (ADP-Glo), p120gamma; conditions: final ATP 25 μM
Procedure: as §1, §2, §3, §4, §5, §6, §7, §8, §9, §10, §11, §12, §13, §14

[1] = Exp. 1, read-out: IC50 p110alpha Exp. 1
[2] = Exp. 2, read-out: IC50 p110alpha Exp. 2
[3] = Exp. 1, read-out: IC50 p110beta Exp. 1
[4] = Exp. 2, read-out: IC50 p110beta Exp. 2
[5] = Exp. 1, read-out: IC50 p110delta Exp. 1
[6] = Exp. 2, read-out: IC50 p110delta Exp. 2
[7] = Exp. 1, read-out: IC50 p120gamma Exp. 1
[8] = Exp. 2, read-out: IC50 p120gamma Exp. 2

Chain of p110alpha (P42336 whole entry): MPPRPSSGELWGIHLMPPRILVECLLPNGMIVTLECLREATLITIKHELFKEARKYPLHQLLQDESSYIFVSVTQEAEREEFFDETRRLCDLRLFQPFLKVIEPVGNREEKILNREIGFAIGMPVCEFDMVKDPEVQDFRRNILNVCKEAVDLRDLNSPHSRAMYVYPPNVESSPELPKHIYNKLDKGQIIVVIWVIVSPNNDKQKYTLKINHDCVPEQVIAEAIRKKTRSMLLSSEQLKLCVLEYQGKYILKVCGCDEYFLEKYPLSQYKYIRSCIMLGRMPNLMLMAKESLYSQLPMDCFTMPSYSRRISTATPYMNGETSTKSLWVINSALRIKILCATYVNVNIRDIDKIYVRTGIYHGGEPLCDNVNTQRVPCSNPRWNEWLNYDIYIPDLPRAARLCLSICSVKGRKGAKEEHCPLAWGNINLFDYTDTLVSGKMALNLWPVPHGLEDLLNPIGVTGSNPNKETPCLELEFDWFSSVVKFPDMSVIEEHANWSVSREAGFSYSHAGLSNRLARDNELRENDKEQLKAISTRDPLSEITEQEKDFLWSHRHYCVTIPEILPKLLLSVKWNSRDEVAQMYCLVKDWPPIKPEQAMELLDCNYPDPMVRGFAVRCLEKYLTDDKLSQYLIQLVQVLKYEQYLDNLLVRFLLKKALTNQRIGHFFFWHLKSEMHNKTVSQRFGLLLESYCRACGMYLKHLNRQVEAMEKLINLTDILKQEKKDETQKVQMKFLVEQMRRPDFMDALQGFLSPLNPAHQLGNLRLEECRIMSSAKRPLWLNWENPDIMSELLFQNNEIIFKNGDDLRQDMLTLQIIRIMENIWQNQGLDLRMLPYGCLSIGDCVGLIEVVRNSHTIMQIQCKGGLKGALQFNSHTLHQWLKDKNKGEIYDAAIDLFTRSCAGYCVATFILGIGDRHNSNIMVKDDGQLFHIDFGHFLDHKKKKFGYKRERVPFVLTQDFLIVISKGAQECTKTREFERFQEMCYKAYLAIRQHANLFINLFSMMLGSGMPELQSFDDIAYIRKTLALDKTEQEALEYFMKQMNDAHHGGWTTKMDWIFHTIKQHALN
Chain of p110alpha (P27986 whole entry partner): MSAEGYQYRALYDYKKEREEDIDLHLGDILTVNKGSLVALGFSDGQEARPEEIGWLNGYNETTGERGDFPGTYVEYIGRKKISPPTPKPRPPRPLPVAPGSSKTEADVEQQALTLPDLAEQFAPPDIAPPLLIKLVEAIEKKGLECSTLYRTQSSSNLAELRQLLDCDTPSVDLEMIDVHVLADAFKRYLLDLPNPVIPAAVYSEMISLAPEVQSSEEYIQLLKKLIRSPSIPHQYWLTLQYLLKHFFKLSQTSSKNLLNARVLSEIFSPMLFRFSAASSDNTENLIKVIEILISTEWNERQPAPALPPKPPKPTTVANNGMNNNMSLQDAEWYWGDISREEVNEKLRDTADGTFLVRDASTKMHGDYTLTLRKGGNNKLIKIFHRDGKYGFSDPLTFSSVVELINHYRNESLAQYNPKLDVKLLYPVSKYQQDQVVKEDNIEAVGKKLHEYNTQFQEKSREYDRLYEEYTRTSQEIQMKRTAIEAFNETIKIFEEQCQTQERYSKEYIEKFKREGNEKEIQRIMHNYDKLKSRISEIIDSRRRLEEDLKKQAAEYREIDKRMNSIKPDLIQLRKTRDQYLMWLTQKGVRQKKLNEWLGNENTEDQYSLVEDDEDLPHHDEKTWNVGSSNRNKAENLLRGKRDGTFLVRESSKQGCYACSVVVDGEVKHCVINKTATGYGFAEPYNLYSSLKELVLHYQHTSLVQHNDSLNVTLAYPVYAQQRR
T1 sequence (P42336 whole entry): as the sequence (P42336 whole entry) above
T1 sequence (P27986 whole entry partner): as the sequence (P27986 whole entry partner) above
Chain of p110delta (O00329 whole entry): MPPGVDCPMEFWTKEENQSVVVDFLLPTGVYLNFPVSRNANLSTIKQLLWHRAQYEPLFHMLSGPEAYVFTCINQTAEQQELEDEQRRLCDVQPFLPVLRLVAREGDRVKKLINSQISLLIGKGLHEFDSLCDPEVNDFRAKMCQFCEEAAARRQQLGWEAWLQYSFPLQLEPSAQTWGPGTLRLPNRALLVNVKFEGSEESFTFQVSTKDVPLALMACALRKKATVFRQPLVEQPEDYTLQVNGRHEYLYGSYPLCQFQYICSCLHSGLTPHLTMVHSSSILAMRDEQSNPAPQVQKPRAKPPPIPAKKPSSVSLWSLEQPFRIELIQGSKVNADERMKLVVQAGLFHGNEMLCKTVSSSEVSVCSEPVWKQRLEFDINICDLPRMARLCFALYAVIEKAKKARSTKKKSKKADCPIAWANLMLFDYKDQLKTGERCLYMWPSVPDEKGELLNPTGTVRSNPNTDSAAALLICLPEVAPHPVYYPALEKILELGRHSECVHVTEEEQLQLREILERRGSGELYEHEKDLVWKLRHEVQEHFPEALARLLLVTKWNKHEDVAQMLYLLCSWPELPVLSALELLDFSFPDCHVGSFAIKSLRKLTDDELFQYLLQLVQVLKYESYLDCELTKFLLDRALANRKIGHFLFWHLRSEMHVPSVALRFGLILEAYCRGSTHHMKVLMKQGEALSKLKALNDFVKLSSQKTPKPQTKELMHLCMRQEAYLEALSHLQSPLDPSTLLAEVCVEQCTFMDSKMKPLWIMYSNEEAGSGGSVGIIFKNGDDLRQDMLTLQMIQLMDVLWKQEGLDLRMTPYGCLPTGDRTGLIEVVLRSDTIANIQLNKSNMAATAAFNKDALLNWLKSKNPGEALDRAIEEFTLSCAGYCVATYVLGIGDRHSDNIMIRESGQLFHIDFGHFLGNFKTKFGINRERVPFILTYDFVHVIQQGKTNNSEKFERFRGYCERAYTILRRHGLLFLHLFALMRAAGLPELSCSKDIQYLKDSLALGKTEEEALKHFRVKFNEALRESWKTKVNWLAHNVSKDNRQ
Chain of p110delta (P27986 whole entry partner): as the sequence (P27986 whole entry partner) above
Chain of p120gamma (P48736 whole entry): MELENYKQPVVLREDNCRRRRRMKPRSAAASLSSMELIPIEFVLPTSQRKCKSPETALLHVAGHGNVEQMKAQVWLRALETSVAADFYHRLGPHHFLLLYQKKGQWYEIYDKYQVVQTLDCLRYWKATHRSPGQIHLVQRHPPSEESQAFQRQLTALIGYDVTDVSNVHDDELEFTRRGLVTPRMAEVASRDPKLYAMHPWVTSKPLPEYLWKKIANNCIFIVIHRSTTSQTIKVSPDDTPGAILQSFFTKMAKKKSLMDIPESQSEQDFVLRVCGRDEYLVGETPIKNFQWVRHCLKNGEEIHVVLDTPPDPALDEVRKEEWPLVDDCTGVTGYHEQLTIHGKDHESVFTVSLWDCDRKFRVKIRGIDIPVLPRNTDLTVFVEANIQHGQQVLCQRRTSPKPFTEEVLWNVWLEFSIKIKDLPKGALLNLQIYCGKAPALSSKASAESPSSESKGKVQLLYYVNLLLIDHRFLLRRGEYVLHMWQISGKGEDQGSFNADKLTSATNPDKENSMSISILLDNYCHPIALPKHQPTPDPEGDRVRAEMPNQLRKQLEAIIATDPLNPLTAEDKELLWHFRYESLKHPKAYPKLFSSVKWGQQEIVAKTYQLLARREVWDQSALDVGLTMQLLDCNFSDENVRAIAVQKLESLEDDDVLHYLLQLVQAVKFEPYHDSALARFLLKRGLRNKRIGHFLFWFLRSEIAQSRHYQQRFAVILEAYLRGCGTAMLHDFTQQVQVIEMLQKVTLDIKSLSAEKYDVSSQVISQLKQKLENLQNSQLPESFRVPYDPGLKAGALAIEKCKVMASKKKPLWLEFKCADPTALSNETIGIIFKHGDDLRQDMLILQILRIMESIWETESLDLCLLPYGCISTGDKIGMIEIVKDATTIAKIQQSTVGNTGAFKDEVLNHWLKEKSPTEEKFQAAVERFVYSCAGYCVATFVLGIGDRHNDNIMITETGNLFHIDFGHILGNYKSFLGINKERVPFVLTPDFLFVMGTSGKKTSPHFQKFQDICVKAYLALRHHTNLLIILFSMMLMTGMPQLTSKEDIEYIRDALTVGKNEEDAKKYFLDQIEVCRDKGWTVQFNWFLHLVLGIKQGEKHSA

| SMILES | pKi (PI3Kα) | pIC50 (p110alpha; [1]) | pIC50 (p110alpha; [2]) | pIC50 (p110beta; [3]) | pIC50 (p110beta; [4]) | pIC50 (p110delta; [5]) | pIC50 (p110delta; [6]) | pIC50 (p120gamma; [7]) | pIC50 (p120gamma; [8]) |
| --- | --- | --- | --- | --- | --- | --- | --- | --- | --- |
| Nc1ccc(-c2cccc3c(=O)cc(N4CCOCC4)oc23)cc1 [PI 828, reference compound] |  | 6.45 | 6.46 | 6.61 | 6.62 | 6.51 | 6.69 | 5.72 | 5.67 |
| COc1ncc(-c2cnc3ccc(-c4cncc(NS(=O)(=O)c5ccccc5)c4)cn23)cn1 [TK2-67p3-36 (6b), N-(5-(3-(2-methoxypyrimidin-5-yl)imidazo[1,2-a]pyridin-6-yl)pyridin-3-yl)benzenesulfonamide] |  | 7.93 | 7.90 | 6.78 | 6.73 | 7.47 | 7.56 | 7.83 | 7.56 |
| O=S(=O)(Nc1cncc(-c2ccc3ncc(-c4ncccn4)n3c2)c1)c1ccccc1 [TK2-94p3-47 (6d), N-(5-(3-(pyrimidin-2-yl)imidazo[1,2-a]pyridin-6-yl)pyridin-3-yl)benzenesulfonamide] |  | 8.05 | 7.94 | 7.56 | 7.35 | 7.97 | 8.07 | 8.12 | 8.07 |
| O=S(=O)(Nc1cncc(-c2ccc3ncc(-c4cnc5ccnn5c4)n3c2)c1)c1ccccc1 [TK2-130p3-37 (6c), N-(5-(3-(pyrazolo[1,5-a]pyrimidin-6-yl)imidazo[1,2-a]pyridin-6-yl)pyridin-3-yl)benzenesulfonamide] |  | 7.29 | 7.21 | 6.38 | 6.32 | 7.47 | 7.51 | 7.30 | 7.51 |
| COc1ncc(-c2cnc3ccc(-c4cncc(NS(=O)(=O)c5ccccc5)c4)cn23)cn1 [drawing 17] | 7.15 |  |  |  |  |  |  |  |  |
| O=S(=O)(Nc1cncc(-c2ccc3ncc(-c4cnc5ccnn5c4)n3c2)c1)c1ccccc1 [drawing 18] | 6.48 |  |  |  |  |  |  |  |  |

More lines, now with the values ahead:

| pKi (PI3Kα) | pIC50 (p110alpha; [1]) | pIC50 (p110alpha; [2]) | pIC50 (p110beta; [3]) | pIC50 (p110beta; [4]) | pIC50 (p110delta; [5]) | pIC50 (p110delta; [6]) | pIC50 (p120gamma; [7]) | pIC50 (p120gamma; [8]) | SMILES |
| --- | --- | --- | --- | --- | --- | --- | --- | --- | --- |
| 7.37 |  |  |  |  |  |  |  |  | CCc1nc(-c2cnc3ccc(-c4cncc(NS(=O)(=O)c5ccccc5)c4)cn23)no1 |
|  | 7.68 | 7.47 | 6.72 | 6.73 | 7.47 | 7.47 | 7.73 | 7.47 | CN(C)c1ncc(-c2cnc3ccc(-c4cncc(NS(=O)(=O)c5ccccc5)c4)cn23)cn1 [TK2-71pZD2-86 (6a), N-(5-(3-(2-(dimethylamino)pyrimidin-5-yl)imidazo[1,2-a]pyridin-6-yl)pyridin-3-yl)benzenesulfonamide] |
| 6.61 |  |  |  |  |  |  |  |  | CN(C)c1ncc(-c2cnc3ccc(-c4cncc(NS(=O)(=O)c5ccccc5)c4)cn23)cn1 [drawing 16] |
| 7.00 |  |  |  |  |  |  |  |  | O=S(=O)(Nc1cncc(-c2ccc3ncc(-c4ncccn4)n3c2)c1)c1ccccc1 [drawing 19] |
